Laboratory results taken from BindingDB's records for doi:10.1016/0960-894X(96)00185-0 (1996).

Target: Human immunodeficiency virus type 1 protease (Human immunodeficiency virus 1, UniProt Q72874)
Assay: ChEBML_159443
Excerpt: In vitro inhibitory activity against HIV-1 protease(PR).

Row | Compound | IC50 [nM]
1 | O=c1oc(-c2ccc(O)cc2)cc(O)c1SCc1ccccc1 [3-Benzylsulfanyl-4-hydroxy-6-(4-hydroxy-phenyl)-pyran-2-one] | 690
2 | O=c1oc(-c2cccc(Cl)c2)cc(O)c1SCc1ccccc1 [3-Benzylsulfanyl-6-(3-chloro-phenyl)-4-hydroxy-pyran-2-one] | 690
